The NIST ThermoML archive (doi:10.1016/j.tca.2008.06.004)

Experiments:
[1] = 101.33 kPa, Liquid; for mass density: Pycnometric method; for speed of sound: Linear variable-path acoustic interferometer
[2] = excess molar enthalpy (molar enthalpy of mixing); xn = mol fraction of the nth substance listed; settings: 308.15 K, 101 kPa, Liquid, Calvet calorimetry
[3] = xn = mol fraction of the nth substance listed; settings: 101 kPa, Liquid; for excess molar volume: 298.15 K, Direct dilatometry; for speed of sound: 308.15 K, Linear variable-path acoustic interferometer

Cc1ccccc1N [2-methylaniline]
[1]
Settings	mass density [kg/m3]	speed of sound [m/s]
298.15 K	994.28	–
308.15 K	–	1603

Cc1ccccc1N [2-methylaniline] + C1CCCCC1
Settings	excess molar enthalpy [kcal/mol]	excess molar volume [m3/mol]	speed of sound [m/s]
[2], x1 = 0.0527	0.0635	–	–
[2], x1 = 0.1017	0.121	–	–
[2], x1 = 0.1628	0.189	–	–
[2], x1 = 0.2349	0.26	–	–
[2], x1 = 0.2681	0.313	–	–
[2], x1 = 0.3614	0.354	–	–
[2], x1 = 0.4213	0.382	–	–
[2], x1 = 0.4907	0.399	–	–
[2], x1 = 0.5613	0.398	–	–
[2], x1 = 0.6121	0.387	–	–
[2], x1 = 0.6774	0.357	–	–
[2], x1 = 0.7643	0.294	–	–
[2], x1 = 0.8391	0.219	–	–
[2], x1 = 0.931	0.102	–	–
[3], x1 = 0.0663	–	–	1215
[3], x1 = 0.0768	–	2.41e-07	–
[3], x1 = 0.1293	–	–	1221
[3], x1 = 0.1415	–	3.87e-07	–
[3], x1 = 0.1758	–	–	1228
[3], x1 = 0.1925	–	4.7e-07	–
[3], x1 = 0.2355	–	–	1239
[3], x1 = 0.2442	–	5.29e-07	–
[3], x1 = 0.2901	–	5.62e-07	–
[3], x1 = 0.2902	–	–	1252
[3], x1 = 0.3335	–	–	1264
[3], x1 = 0.3415	–	5.81e-07	–
[3], x1 = 0.393	–	–	1282
[3], x1 = 0.3981	–	5.82e-07	–
[3], x1 = 0.4506	–	5.68e-07	–
[3], x1 = 0.4881	–	–	1315
[3], x1 = 0.5225	–	5.29e-07	–
[3], x1 = 0.556	–	–	1342
[3], x1 = 0.6103	–	4.57e-07	–
[3], x1 = 0.6453	–	–	1382
[3], x1 = 0.6875	–	3.79e-07	–
[3], x1 = 0.7117	–	–	1415
[3], x1 = 0.7513	–	3.07e-07	–
[3], x1 = 0.7986	–	–	1462
[3], x1 = 0.8224	–	2.22e-07	–
[3], x1 = 0.8479	–	–	1493
[3], x1 = 0.9026	–	–	1528
[3], x1 = 0.9119	–	1.11e-07	–

Cc1ccccc1N [2-methylaniline] + CCCCCC
Settings	excess molar enthalpy [kcal/mol]	excess molar volume [m3/mol]	speed of sound [m/s]
[2], x1 = 0.0678	0.0385	–	–
[2], x1 = 0.1317	0.084	–	–
[2], x1 = 0.1927	0.132	–	–
[2], x1 = 0.2505	0.179	–	–
[2], x1 = 0.3314	0.242	–	–
[2], x1 = 0.4015	0.29	–	–
[2], x1 = 0.4718	0.328	–	–
[2], x1 = 0.5317	0.35	–	–
[2], x1 = 0.5997	0.36	–	–
[2], x1 = 0.6532	0.355	–	–
[2], x1 = 0.7013	0.341	–	–
[2], x1 = 0.7717	0.301	–	–
[2], x1 = 0.8439	0.235	–	–
[2], x1 = 0.9164	0.142	–	–
[3], x1 = 0.0697	–	–	1056
[3], x1 = 0.0712	–	-4.8e-08	–
[3], x1 = 0.1172	–	–	1075
[3], x1 = 0.1767	–	-1.25e-07	–
[3], x1 = 0.1851	–	–	1105
[3], x1 = 0.2524	–	-1.84e-07	–
[3], x1 = 0.2657	–	–	1142
[3], x1 = 0.2933	–	-2.15e-07	–
[3], x1 = 0.3119	–	–	1165
[3], x1 = 0.3442	–	-2.52e-07	–
[3], x1 = 0.3707	–	–	1194
[3], x1 = 0.3801	–	-2.77e-07	–
[3], x1 = 0.4443	–	-3.15e-07	–
[3], x1 = 0.4478	–	–	1232
[3], x1 = 0.4903	–	-3.38e-07	–
[3], x1 = 0.5009	–	–	1259
[3], x1 = 0.5613	–	-3.63e-07	–
[3], x1 = 0.5787	–	–	1297
[3], x1 = 0.6363	–	-3.71e-07	–
[3], x1 = 0.6449	–	–	1329
[3], x1 = 0.6991	–	-3.61e-07	–
[3], x1 = 0.709	–	–	1359
[3], x1 = 0.7552	–	-3.36e-07	–
[3], x1 = 0.7673	–	–	1389
[3], x1 = 0.8345	–	-2.71e-07	–
[3], x1 = 0.8391	–	–	1433
[3], x1 = 0.9123	–	–	1501
[3], x1 = 0.9265	–	-1.46e-07	–

Cc1ccccc1N [2-methylaniline] + CCCCCCC
Settings	excess molar enthalpy [kcal/mol]	excess molar volume [m3/mol]	speed of sound [m/s]
[2], x1 = 0.0734	0.0479	–	–
[2], x1 = 0.1457	0.0872	–	–
[2], x1 = 0.1968	0.112	–	–
[2], x1 = 0.2678	0.144	–	–
[2], x1 = 0.3109	0.162	–	–
[2], x1 = 0.3874	0.193	–	–
[2], x1 = 0.4467	0.215	–	–
[2], x1 = 0.5019	0.234	–	–
[2], x1 = 0.5876	0.256	–	–
[2], x1 = 0.6513	0.264	–	–
[2], x1 = 0.7016	0.263	–	–
[2], x1 = 0.7767	0.244	–	–
[2], x1 = 0.8312	0.215	–	–
[2], x1 = 0.9267	0.12	–	–
[3], x1 = 0.0707	–	–	1102
[3], x1 = 0.0814	–	-4.8e-08	–
[3], x1 = 0.1227	–	–	1115
[3], x1 = 0.1663	–	-1.02e-07	–
[3], x1 = 0.1758	–	–	1129
[3], x1 = 0.2224	–	-1.37e-07	–
[3], x1 = 0.2378	–	–	1148
[3], x1 = 0.2812	–	-1.71e-07	–
[3], x1 = 0.3079	–	–	1172
[3], x1 = 0.3388	–	-1.99e-07	–
[3], x1 = 0.3508	–	–	1187
[3], x1 = 0.3991	–	-2.23e-07	–
[3], x1 = 0.4047	–	–	1208
[3], x1 = 0.4554	–	-2.38e-07	–
[3], x1 = 0.4679	–	–	1233
[3], x1 = 0.5218	–	-2.47e-07	–
[3], x1 = 0.547	–	–	1266
[3], x1 = 0.5804	–	-2.45e-07	–
[3], x1 = 0.6131	–	–	1296
[3], x1 = 0.6446	–	-2.33e-07	–
[3], x1 = 0.6884	–	–	1334
[3], x1 = 0.7112	–	-2.1e-07	–
[3], x1 = 0.7597	–	–	1373
[3], x1 = 0.7819	–	-1.73e-07	–
[3], x1 = 0.8208	–	–	1413
[3], x1 = 0.8503	–	-1.27e-07	–
[3], x1 = 0.9224	–	–	1501
[3], x1 = 0.9383	–	-6.7e-08	–

C1CCCCC1 [cyclohexane]
[1], 298.15 K
Settings	mass density [kg/m3]	speed of sound [m/s]
–	773.94	1255

CCCCCCC [heptane]
[1]
Settings	mass density [kg/m3]	speed of sound [m/s]
298.15 K	679.49	–
308.15 K	–	1088

CCCCCC [hexane]
[1], 298.15 K
Settings	mass density [kg/m3]	speed of sound [m/s]
–	654.82	1079
